Measurements taken from patent publication US20180098970A1, “USE OF […] THE TREATMENT OF NEURO[…]” (Afecta Pharmaceuticals, Inc., priority 2008, published 2018).
Like-named read-outs stand apart in the source and are kept apart here.

What was measured:
hSERT = biological target: T1, hSERT (Homo sapiens, UniProt P31645); assay: competition binding assay, recombinant human SERT in HEK-293 cell membranes
T1 construct: expressed in transfected cells; host or cells: HEK-293 (HEK-hSERT), membranes
Description: (§1) These transporters control the amount of the three monoamines in the TMMS and therefore regulate fast excitatory and inhibitory neurotransmission in the CNS. Thus, the relative amounts of all three of these monoamines in the TMMS of brain controls mammalian neurobehaviors. To determine the Ki of the representative compounds; recombinant human monoamine transporters (DAT, SERT and NET) were expressed in HEK-293 cells as described in Eshleman et al. (1999). The HEK-hDAT, HEK-hSERT and HEK-hNET cells were incubated in modified Eagle's medium or Dulbecco's modified Eagle's medium exactly as described by Eshleman et al. Cells were grown until confluent on 150 mm diameter tissue culture dishes in a humidified 10% CO2 environment at 37° C. […] Paroxetine (SERT), [125sup I] RTI-55 binding (DAT) and (NET). The binding assays contained an aliquot of membranes prepared from the HEK cell lines expressing the recombinant human transporters (≈12-30 μg protein, depending on the cell line, adjusted to bind <10% of the total radioactivity added to the assay), [125supI] RTI-55 (0.2 nM final concentration) or [3supH] Paroxetine (0.4 nM final concentration) along with Krebs-HEPES assay buffer to yield a final volume of 250 μL. Specific binding was defined as the difference in binding observed in the presence and absence of 10 μM nomifensine (HEK-hDAT), 10 uM desipramine HEK-NET) or 10 μM imipramine (HEK-hSERT). The reaction was incubated for 90 min at room temperature in the dark and was terminated by vacuum filtration. Competition experiments were conducted with duplicate determinations.

hNET = biological target: T2, hNET (Homo sapiens, UniProt P23975); assay: competition binding assay, recombinant human NET in HEK-293 cell membranes
T2 construct: expressed in transfected cells; host or cells: HEK-293 (HEK-hNET), membranes
Description: as §1

hDAT = biological target: T3, hDAT (Homo sapiens, UniProt Q01959); assay: competition binding assay, recombinant human DAT in HEK-293 cell membranes; settings: [125I]RTI-55 0.2 nM, ± mean standard error, 3 trials, read-out: Inhibition of binding at human monoamine transporters (Ki) hDAT
T3 construct: expressed in transfected cells; host or cells: HEK-293 (HEK-hDAT), membranes
Description: as §1

symptoms of ADHD = assay: clinical case study, ADHD (Example 3); assay type: in vivo, human
Description: patient two is a person. […], they were also being treated with risperidone which continued for 2 years. […] Subsequently, the risperidone was then completely discontinued without any recurrence of symptoms of ADHD (i.e. poor attention span, hyperactivity, or inappropriate behavior).

Tourette syndrome = assay: clinical case study, Tourette syndrome with ADHD (Example 4); assay type: in vivo, human; settings: patient, Mazindol 7.5 mg per day started
Procedure: patient one is a person. They began to have constant vocal tics. Motor tics started […], consisting of licking their lips, rolling their eyes, hand and foot tics. They were diagnosed as having Tourette syndrome. […], the major problems were with their tics, outbursts and lack of control. Despite treatment with methylphenidate 20 mg twice a day (bid), haloperidol 0.5 mg and paroxetine 10 mg, they were in special school and was suffering from uncountable motor and vocal tics everyday during waking hours and with outbursts of shouting, coprolalia and episodes of self-mutilation. coprolabia, lying, hitting things and people, and extremely oppositional.

chronic fatigue syndrome = assay: clinical case study, chronic fatigue syndrome (Example 5); assay type: in vivo, human; settings: person, Mazindol 5.0 mg per day, after 10 days of therapy
Description: P. C. a person had suffered from chronic fatigue syndrome, “chemical sensitivity and for one year with marked fatigue each day beginning in the early or mid afternoon. There has been some accompanying muscle aching, but no symptoms of central neurosystem involvement. Their functioning at work and at home had been seriously impaired. EBV titers were positive.

[1] = tested on: reward deficiency disorder; assay: clinical case study, reward deficiency disorder (Example 6); assay type: in vivo, human; settings: person, Mazindol 2 mg BID, over several weeks
Description: W. K. a person had suffered from alcohol abuse, sexual addiction and pathologic gambling for 10 years. They had been in counseling, Alcoholic Anonymous, Gamblers Anonymous on and off over the past 10 years with minimal effects. They had lost their marriage and several jobs as result of their behavioral problems. They had been treated with antidepressants, but they had been of little help. […] In addition, they reported that the thrill they have always gotten from gambling was no long present and they no longer felt compulsion to gamble.

dementia = assay: clinical case study, dementia with motor impairment (Example 7); assay type: in vivo, human; settings: person, Mazindol 8 mg per day, after 2 weeks of treatment
Description: R 0 is a person had suffered from motor impairment and cognitive decline. They developed frank dementia and required institutionalization and nursing care. […] Based on reports by their care givers their became more aware of surrounding and was able to recognize family member for the first time in one year and was not “hearing and seeing things that were not there”.

[2] = tested on: obsessive compulsive behavior; assay: clinical case study, obsessive compulsive behavior (Example 8); assay type: in vivo, human; settings: person, Mazindol 5 mg per day
Description: patient five is a person who developed compulsive behaviors after the birth of their first child. […] They washed all food even if it had been pre-packaged and placed in specific foods in specific locations in their pantry and refrigerator which they were sure were the “safest: They wore gloves when they left the house and made […] children do so as well. They sprayed disinfectant on everything […] or […] children came in contact with and refused in eat in restaurants. Prior to their pregnancy they had been diagnosed with polycystic ovary disease and need treatment in order to conceive. They were told that they were also “borderline diabetic”. […] Shortly, after beginning their therapy they reported that “mood was better” and they didn't “feel anxious” about bacteria anymore. After three weeks of therapy with Mazindol they stopped wearing gloves (and forcing […] children to do so) and using disinfectant. Their spouse reported that they were a “new […]” and they were no allowed to put the groceries away without having to place it in particular places.

[3] = [3H]Paroxetine 0.4 nM, HEK-hSERT membranes, ± mean standard error, 3 trials, read-out: Inhibition of binding at human monoamine transporters (Ki) hSERT
[4] = [125I]RTI-55 0.2 nM, HEK-hNET membranes, ± mean standard error, 3 trials, read-out: Inhibition of binding at human monoamine transporters (Ki) hNET

T2 sequence (P23975 whole entry): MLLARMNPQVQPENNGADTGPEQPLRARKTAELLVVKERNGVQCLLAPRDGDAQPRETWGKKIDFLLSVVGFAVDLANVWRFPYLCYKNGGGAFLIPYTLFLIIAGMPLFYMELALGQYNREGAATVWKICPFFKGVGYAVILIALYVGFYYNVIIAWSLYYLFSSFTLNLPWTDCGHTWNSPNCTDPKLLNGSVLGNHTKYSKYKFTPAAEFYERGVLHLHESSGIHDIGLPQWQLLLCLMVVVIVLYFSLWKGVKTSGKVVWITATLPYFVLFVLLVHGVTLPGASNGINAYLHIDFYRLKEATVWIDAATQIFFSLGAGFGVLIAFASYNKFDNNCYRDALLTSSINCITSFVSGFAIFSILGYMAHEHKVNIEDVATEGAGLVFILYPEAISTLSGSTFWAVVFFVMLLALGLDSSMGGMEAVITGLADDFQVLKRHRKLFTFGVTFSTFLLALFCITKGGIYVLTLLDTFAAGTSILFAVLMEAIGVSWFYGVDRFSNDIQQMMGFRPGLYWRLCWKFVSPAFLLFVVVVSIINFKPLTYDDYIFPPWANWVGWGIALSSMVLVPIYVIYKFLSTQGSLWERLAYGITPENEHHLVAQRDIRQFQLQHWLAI
T3 sequence (Q01959 whole entry): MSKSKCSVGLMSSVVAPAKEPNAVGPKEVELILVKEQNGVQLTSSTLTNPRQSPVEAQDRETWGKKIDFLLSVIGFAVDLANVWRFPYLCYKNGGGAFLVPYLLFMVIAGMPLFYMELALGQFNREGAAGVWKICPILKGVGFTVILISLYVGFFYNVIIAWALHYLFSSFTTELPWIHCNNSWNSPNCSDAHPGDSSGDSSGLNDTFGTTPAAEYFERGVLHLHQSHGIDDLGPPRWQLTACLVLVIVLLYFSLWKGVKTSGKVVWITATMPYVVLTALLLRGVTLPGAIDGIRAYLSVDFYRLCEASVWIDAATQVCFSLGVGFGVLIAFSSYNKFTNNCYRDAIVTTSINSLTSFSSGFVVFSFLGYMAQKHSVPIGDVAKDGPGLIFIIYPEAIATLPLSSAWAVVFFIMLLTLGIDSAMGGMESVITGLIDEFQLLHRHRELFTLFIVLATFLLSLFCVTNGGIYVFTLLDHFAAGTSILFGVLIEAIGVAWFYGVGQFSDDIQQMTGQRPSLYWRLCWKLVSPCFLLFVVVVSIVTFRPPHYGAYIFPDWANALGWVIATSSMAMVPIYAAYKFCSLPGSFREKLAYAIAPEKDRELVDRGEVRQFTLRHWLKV
T1 sequence (P31645 whole entry): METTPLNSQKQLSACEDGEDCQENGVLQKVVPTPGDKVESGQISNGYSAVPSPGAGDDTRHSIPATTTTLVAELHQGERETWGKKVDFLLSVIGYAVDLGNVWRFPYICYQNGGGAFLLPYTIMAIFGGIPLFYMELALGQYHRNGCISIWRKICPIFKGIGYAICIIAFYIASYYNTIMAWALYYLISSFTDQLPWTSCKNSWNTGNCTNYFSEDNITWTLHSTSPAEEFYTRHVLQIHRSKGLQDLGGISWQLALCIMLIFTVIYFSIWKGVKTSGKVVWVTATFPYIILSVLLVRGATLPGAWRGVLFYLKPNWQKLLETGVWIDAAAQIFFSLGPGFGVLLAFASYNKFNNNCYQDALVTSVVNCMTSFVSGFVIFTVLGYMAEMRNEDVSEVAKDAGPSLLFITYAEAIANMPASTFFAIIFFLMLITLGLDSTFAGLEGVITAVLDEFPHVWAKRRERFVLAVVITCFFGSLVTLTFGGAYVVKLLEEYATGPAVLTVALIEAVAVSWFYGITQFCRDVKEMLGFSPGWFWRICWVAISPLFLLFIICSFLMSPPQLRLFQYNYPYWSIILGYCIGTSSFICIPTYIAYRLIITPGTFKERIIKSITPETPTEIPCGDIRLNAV

Structure (SMILES) | Ki (hSERT; [3]) | Ki (hNET; [4]) | Ki (hDAT) | Ki (hSERT) | Ki (hNET) | recurrence of ADHD symptoms on maintenance (symptoms of ADHD; Mazindol 2.5 mg/day as sole agent, over the next 3 years) | clinical response of ADHD symptoms (symptoms of ADHD; patient, Mazindol 2.5 mg BID started, within 2 months) | clinical response of tics, outbursts and related symptoms (Tourette syndrome) | clinical response of fatigue and muscle ache (chronic fatigue syndrome) | clinical response of drinking and gambling behavior [1] | clinical response of motor function and dementia (dementia) | clinical response of obsessive compulsive behavior [2]
OC1(c2ccc(Cl)c(Cl)c2)c2ccccc2C2=NCCN21 (stereo not drawn) [Cpd 1, 5-(3,4-dichlorophenyl)-2,5-dihydro-5H-imidazo(2,1-a)isoindol-5-ol] | 0.101 ± 0.0079 µM | 0.363 ± 0.041 µM | 0.025 ± 0.0048 µM |  |  |  |  |  |  |  |  | 
Clc1ccc(C2c3ccccc3C3=NCCN32)cc1 (stereo not drawn) [Cpd 2, 5-(4-Chlorophenyl)-2,5-dihydro-5H-imidazo(2,1-a)is oindole] | 0.014 ± 0.005 µM | 0.056 ± 0.019 µM | 0.045 ± 0.011 µM |  |  |  |  |  |  |  |  | 
Clc1ccc(C2c3ccccc3C3=NCCN32)cc1 (stereo not drawn) [Cpd 3, 5-(4-Chlorophenyl)-2,3-dihydro-5H-imidazo (2,1-a)is oindole] | 0.312 ± 0.045 µM | 0.089 ± 0.018 µM | 0.111 ± 0.0073 µM |  |  |  |  |  |  |  |  | 
OC1(c2ccc(Cl)cc2)c2ccccc2C2=NCCN21 (stereo not drawn) [mazindol, 5-(4-Chlorophenyl)-2,5-dihydro-5H-imidazo(2,1-a)is oindol-5-ol] |  |  |  | 0.056 ± 0.009 µM | 0.024 ± 0.002 µM | without the return of any symptoms of ADHD | improved attention span, loss of hyperactivity | significant improvement in these symptoms | complete relief of their fatigue and muscle ache symptoms | able to completely stop drinking after 5 weeks | improvement of their motor function, and their dementia | relief of their obsessive compulsive behavior
